Assay results: ChEMBL document CHEMBL2202969, “Discovery and evolution of phenoxypiperidine hydroxyamide dual CCR3/H₁ antagonists. Part I” (Bioorg Med Chem Lett, 2012)

Tests used:
Histamine H1 receptor [1] = biological target: T1, Histamine H1 receptor (Homo sapiens, UniProt P35367); assay: Displacement of [3H]-pyrilamine from human histamine H1 receptor expressed in recombinant CHOK1 cells after 1 hr; type: cell-based, CHO-K1
[2] = biological target: T2, C-C chemokine receptor type 3 (Homo sapiens, UniProt P51677); assay: Displacement of [3H]-4-(2,4-dichloro-3-methylphenoxy)-l'-[4- (methylsulfonyl)benzoyl]-l,4'-bipiperidine from human recombinant CCR3 expressed in CHOK1 cells after 2 hrs by scintillation counting analysis; type: cell-based, CHO-K1
T2 sequence (P51677 whole entry): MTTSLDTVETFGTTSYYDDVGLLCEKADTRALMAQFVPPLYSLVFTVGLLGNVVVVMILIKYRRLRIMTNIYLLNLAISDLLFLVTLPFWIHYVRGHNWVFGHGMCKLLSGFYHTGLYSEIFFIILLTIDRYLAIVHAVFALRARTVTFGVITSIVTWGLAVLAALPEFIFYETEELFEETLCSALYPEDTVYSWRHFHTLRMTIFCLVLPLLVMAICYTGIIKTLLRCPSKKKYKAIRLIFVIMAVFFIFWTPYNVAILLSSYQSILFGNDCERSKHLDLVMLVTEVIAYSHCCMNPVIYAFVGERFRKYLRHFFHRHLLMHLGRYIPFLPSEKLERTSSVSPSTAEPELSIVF

[3] = biological target: T3, C-C chemokine receptor type 3 (Homo sapiens) (UniProt P51677); assay: Displacement of [3H]-4-(2,4-dichloro-3-methylphenoxy)-l'-[4- (methylsulfonyl)benzoyl]-l,4'-bipiperidine from human recombinant CCR3 expressed in CHOK1 cells at 1 uM after 2 hrs by scintillation counting analysis; type: cell-based; details: CHO-K1
T3 sequence (whole entry): T2 sequence (P51677 whole entry)

in vitro [4] = details: human
[5] = biological target: C-C chemokine receptor type 3 (Homo sapiens) (UniProt P51677); assay: Displacement of radioligand from human CCR3 expressed in recombinant CHOK1 cells at 1 uM after 1 hr; details: CHO-K1
[6] = biological target: Voltage-gated inwardly rectifying potassium channel KCNH2 (Homo sapiens, UniProt Q12809)
Chain of Voltage-gated inwardly rectifying potassium channel KCNH2 (Q12809 whole entry): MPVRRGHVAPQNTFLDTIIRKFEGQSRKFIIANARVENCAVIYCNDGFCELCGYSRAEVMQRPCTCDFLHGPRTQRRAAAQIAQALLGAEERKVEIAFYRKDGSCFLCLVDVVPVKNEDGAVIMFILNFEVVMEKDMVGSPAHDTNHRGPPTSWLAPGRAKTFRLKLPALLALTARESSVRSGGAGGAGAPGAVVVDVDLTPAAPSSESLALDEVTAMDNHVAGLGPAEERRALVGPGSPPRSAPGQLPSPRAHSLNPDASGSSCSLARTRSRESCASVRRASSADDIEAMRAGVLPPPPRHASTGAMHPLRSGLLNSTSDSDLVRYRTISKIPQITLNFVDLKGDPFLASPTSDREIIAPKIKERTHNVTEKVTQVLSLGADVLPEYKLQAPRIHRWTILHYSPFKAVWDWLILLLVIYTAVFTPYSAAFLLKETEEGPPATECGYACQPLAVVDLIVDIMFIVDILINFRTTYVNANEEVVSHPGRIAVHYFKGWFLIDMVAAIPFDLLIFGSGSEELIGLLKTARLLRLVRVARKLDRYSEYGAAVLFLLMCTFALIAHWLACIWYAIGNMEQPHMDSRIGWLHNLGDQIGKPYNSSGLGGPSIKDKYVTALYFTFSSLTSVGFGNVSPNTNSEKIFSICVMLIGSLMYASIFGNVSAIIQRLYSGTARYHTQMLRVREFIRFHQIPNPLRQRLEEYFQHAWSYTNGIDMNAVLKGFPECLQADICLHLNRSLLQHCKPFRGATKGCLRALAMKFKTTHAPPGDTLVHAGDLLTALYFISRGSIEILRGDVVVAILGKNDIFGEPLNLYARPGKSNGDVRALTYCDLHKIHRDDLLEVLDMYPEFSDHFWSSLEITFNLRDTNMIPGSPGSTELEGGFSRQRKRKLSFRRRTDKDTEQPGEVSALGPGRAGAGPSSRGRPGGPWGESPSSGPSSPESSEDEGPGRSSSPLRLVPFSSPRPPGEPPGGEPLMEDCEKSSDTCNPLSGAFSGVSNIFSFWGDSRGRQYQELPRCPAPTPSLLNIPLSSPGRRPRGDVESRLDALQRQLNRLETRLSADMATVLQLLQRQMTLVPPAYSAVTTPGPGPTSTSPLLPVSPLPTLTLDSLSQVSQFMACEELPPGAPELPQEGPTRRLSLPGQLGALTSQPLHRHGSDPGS

physchem = details: octanol/water
in vitro [7] = details: rat
[8] = Oral bioavailability in rat; type: ADME, organism-based; details: in vivo
in vivo [9] = details: rat
in vivo [10] = details: rat; remark: listed apart in the source
in vivo [11] = details: rat; remark: listed apart in the source
in vitro [12] = details: rat, hepatocytes
in vitro [13] = details: human, hepatocytes
[14] = biological target: T4, C-C chemokine receptor type 1 (Homo sapiens, UniProt P32246); assay: Antagonist activity at CCR1; type: functional
T4 sequence (P32246 whole entry): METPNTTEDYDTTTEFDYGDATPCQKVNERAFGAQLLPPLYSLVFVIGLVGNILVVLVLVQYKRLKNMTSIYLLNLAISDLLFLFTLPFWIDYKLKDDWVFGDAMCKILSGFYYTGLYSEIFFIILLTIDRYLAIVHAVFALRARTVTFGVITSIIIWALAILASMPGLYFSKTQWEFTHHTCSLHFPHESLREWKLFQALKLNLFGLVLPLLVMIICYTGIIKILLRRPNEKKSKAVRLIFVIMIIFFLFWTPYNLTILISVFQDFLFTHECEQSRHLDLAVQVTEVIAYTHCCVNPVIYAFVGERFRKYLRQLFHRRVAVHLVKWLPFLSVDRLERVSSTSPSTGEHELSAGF

Histamine H1 receptor [15] = biological target: T1, Histamine H1 receptor; assay: Antagonist activity at histamine H1 receptor; type: functional

T1 sequence (P35367 whole entry): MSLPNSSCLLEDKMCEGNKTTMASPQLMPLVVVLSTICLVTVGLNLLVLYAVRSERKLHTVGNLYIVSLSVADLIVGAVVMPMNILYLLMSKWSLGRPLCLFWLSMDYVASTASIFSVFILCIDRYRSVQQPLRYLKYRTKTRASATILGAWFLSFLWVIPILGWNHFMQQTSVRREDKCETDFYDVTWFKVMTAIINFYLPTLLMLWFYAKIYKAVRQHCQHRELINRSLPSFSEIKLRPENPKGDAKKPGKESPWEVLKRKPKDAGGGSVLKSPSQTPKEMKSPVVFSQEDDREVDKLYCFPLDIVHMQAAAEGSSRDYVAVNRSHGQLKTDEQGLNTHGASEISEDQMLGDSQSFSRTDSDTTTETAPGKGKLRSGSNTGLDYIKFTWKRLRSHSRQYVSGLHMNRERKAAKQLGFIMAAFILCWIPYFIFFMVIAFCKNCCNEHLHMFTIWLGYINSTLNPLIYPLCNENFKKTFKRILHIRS

Ki (Histamine H1 receptor [1])	Ki [2]	inhibition [3]	microsomal CLint (in vitro [4]; liver microsomes)	inhibition [5]	logD (physchem)	microsomal CLint (in vitro [7]; liver microsomes)	SMILES	IC50 [6]	further results
0.501 µM	0.126 µM	> 70%	< 3 µL/min/mg	> 70%			N#Cc1ccc(OC[C@@H](O)CNC2CCN(Cc3ccc(Cl)c(Cl)c3)CC2)cc1		
0.00794 µM	0.00158 µM	> 70%		> 70%	2.9		O=C(NC[C@@H](O)CN1CCC(Oc2ccc(Cl)c(Cl)c2)CC1)c1n[nH]c2ccccc12	0.251 µM	
		> 70%	7 µL/min/mg			13 µL/min/mg	N#Cc1cccc(S(=O)(=O)NC[C@@H](O)CN2CCC(Oc3ccc(Cl)c(Cl)c3)CC2)c1		
0.0631 µM	0.00398 µM	> 70%		> 70%	3.1	18 µL/min/mg	COc1cc(C(=O)NC[C@@H](O)CN2CCC(Oc3ccc(Cl)c(Cl)c3)CC2)ccc1N	0.251 µM	bioavailability [8]: 30%; half-life (in vivo [9]): 6.5 h; clearance (in vivo [10]): 3.36 L/h/kg; Vd (in vivo [11]): 25 L/kg; hepatocyte CLint (in vitro [12]): 6 µL/min/1e6 cells; hepatocyte CLint (in vitro [13]): < 2 µL/min/1e6 cells
	0.00251 µM	> 70%			4.5		O=C(NC[C@@H](O)CN1CCC(Oc2ccc(Cl)c(Cl)c2)CC1)n1c(=O)[nH]c2ccccc21	0.501 µM	
		> 70%					O=C(NC[C@@H](O)CN1CCC(Oc2ccc(Cl)c(Cl)c2)CC1)c1c[nH]c(=O)c2ccccc12		IC50 [14]: 5.01 µM
0.00316 µM	0.251 µM	> 70%	< 3 µL/min/mg		> 4.5	23 µL/min/mg	N#Cc1cccc(OC[C@@H](O)CN2CCC(Oc3ccc(Cl)c(Cl)c3)CC2)c1		
0.00398 µM	0.00794 µM	> 70%		> 70%	3.5		O=C(NC[C@@H](O)CN1CCC(Oc2ccc(Cl)c(Cl)c2)CC1)c1cc(=O)[nH]c2ccccc12	> 10 µM	
0.316 µM	0.158 µM	> 70%	< 3 µL/min/mg	> 70%			O[C@@H](CNC1CCN(Cc2ccc(Cl)c(Cl)c2)CC1)COc1ccc2ncsc2c1		
0.0126 µM	0.794 µM	> 70%	3 µL/min/mg		> 4.5	129 µL/min/mg	N#Cc1cccc(OCCCN2CCC(Oc3ccc(Cl)c(Cl)c3)CC2)c1		
	0.00158 µM	> 70%			3.7		O=C(NC[C@@H](O)CN1CCC(Oc2ccc(Cl)c(Cl)c2)CC1)c1n[nH]c(=O)c2ccccc12		
0.0126 µM	0.0126 µM	> 70%		> 70%	3.3		O=C(NC[C@@H](O)CN1CCC(Oc2ccc(Cl)c(Cl)c2)CC1)c1cnnc2ccccc12	6.31 µM	
0.0316 µM	0.00251 µM	> 70%			3.9		O=C(NC[C@@H](O)CN1CCC(Oc2ccc(Cl)c(Cl)c2)CC1)c1c[nH]c2ccccc12	2 µM	
0.02 µM	0.126 µM	> 70%	17 µL/min/mg	> 70%	> 4.5	49 µL/min/mg	COc1cccc(SC[C@@H](O)CN2CCC(Oc3ccc(Cl)c(Cl)c3)CC2)c1		
0.1 µM	0.251 µM	> 70%		> 70%	2.9	20 µL/min/mg	CS(=O)(=O)c1ccc(C(=O)NC[C@@H](O)CN2CCC(Oc3ccc(Cl)c(Cl)c3)CC2)s1		hepatocyte CLint (in vitro [12]): 3 µL/min/1e6 cells
0.0158 µM	0.2 µM	> 70%		> 70%	3.3	19 µL/min/mg	O=C(NC[C@@H](O)CN1CCC(Oc2ccc(Cl)c(Cl)c2)CC1)c1cn2cc(F)ccc2n1		hepatocyte CLint (in vitro [12]): 7 µL/min/1e6 cells
0.2 µM	0.0158 µM	> 70%		> 70%	2.3	8 µL/min/mg	CS(=O)(=O)c1ccccc1C(=O)NC[C@@H](O)CN1CCC(Oc2ccc(Cl)c(Cl)c2)CC1		hepatocyte CLint (in vitro [12]): < 3 µL/min/1e6 cells; hepatocyte CLint (in vitro [13]): < 2 µL/min/1e6 cells
0.000316 µM	0.0316 µM	> 70%	< 3 µL/min/mg	> 70%	> 4.5	22 µL/min/mg	N#Cc1cccc(OC[C@@H](O)CCN2CCC(Oc3ccc(Cl)c(Cl)c3)CC2)c1		
0.501 µM	0.316 µM	> 70%		> 70%	3.1	23 µL/min/mg	N#Cc1cccc(OC[C@@H](O)CNC2CCN(Cc3ccc(Cl)c(Cl)c3)CC2)c1		hepatocyte CLint (in vitro [12]): 7 µL/min/1e6 cells
	0.1 µM						O=C(Nc1ccccc1OCC(O)CN1CCC(Oc2ccc(Cl)c(Cl)c2)CC1)C1CCC1 (configuration not stated)		IC50 (Histamine H1 receptor [15]): 5.01 µM; Ki [14]: 0.0158 µM
	0.00251 µM	> 70%		> 70%	3.2		CN(C[C@@H](O)CN1CCC(Oc2ccc(Cl)c(Cl)c2)CC1)C(=O)c1c[nH]c(=O)c2ccccc12	2 µM	
0.02 µM	0.02 µM	> 70%		> 70%	3.5		N#Cc1cccc(C(=O)NC[C@@H](O)CN2CCC(Oc3ccc(Cl)c(Cl)c3)CC2)c1		microsomal CLint (in vitro [7]; microsomes): 25 µL/min/mg; microsomal CLint (in vitro [4]; microsomes): 4 µL/min/mg
1.26 µM	0.0794 µM	> 70%			1.2	< 3 µL/min/mg	CS(=O)(=O)c1ccccc1C(=O)NCC(O)CNC1CCN(Cc2ccc(Cl)c(Cl)c2)CC1 (configuration not stated)		half-life (in vivo [9]): 2.3 h; clearance (in vivo [10]): 3.24 L/h/kg; Vd (in vivo [11]): 9 L/kg; hepatocyte CLint (in vitro [12]): 4 µL/min/1e6 cells
